Reference: paper PMC9653409, “Generative deep learning enables the discovery of a potent and selective RIPK1 inhibitor” (Nature Communications, 2022)

How the values were obtained:
Experiment in all cases: Kinase inhibitory activity profiling of RI-962@10 µM (406 kinases, Eurofins)
Format in all cases: biochemical
[1] = target: panel of human kinases (kinase named in endpoint) (Homo sapiens, UniProt P49137); settings: 10 µM; read-out: Activity (%), MAPKAP-K2(h)
Method in brief: (§1)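 Radiometric filter-binding kinase assays: enzyme preincubated 15 min with compound in 8 mM MOPS pH 7.0, 0.2 mM EDTA, 250 μM peptide substrate, 10 mM magnesium acetate, 10 μM [γ-33P]-ATP. Reaction started with Mg/ATP, run 40 min at room temperature, stopped with phosphoric acid; 33P incorporation read by scintillation counting. Other kinases by similar protocols.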

[2] = target: panel of human kinases (kinase named in endpoint) (Homo sapiens, UniProt P07949, V804L); settings: 10 µM; read-out: Activity (%), Ret (V804L)(h)
Method in brief: as §1

[3] = target: panel of human kinases (kinase named in endpoint) (Homo sapiens, UniProt Q06187); settings: 10 µM; read-out: Activity (%), BTK(h)
Method in brief: as §1

[4] = target: panel of human kinases (kinase named in endpoint) (Homo sapiens, UniProt Q96RR4); settings: 10 µM; read-out: Activity (%), CaMKK2(h)
Method in brief: as §1

[5] = target: panel of human kinases (kinase named in endpoint) (Homo sapiens, UniProt Q8NE63); settings: 10 µM; read-out: Activity (%), HIPK4(h)
Method in brief: as §1

[6] = target: panel of human kinases (kinase named in endpoint) (Homo sapiens, UniProt P54764); settings: 10 µM; read-out: Activity (%), EphA4(h)
Method in brief: as §1

[7] = target: panel of human kinases (kinase named in endpoint) (Homo sapiens, UniProt Q9BYP7); settings: 10 µM; read-out: Activity (%), WNK3(h)
Method in brief: as §1

[8] = target: panel of human kinases (kinase named in endpoint) (Homo sapiens, UniProt Q9HBH9); settings: 10 µM; read-out: Activity (%), Mnk2(h)
Chain of panel of human kinases (kinase named in endpoint) (Homo sapiens, UniProt Q9HBH9) (Q9HBH9 whole entry): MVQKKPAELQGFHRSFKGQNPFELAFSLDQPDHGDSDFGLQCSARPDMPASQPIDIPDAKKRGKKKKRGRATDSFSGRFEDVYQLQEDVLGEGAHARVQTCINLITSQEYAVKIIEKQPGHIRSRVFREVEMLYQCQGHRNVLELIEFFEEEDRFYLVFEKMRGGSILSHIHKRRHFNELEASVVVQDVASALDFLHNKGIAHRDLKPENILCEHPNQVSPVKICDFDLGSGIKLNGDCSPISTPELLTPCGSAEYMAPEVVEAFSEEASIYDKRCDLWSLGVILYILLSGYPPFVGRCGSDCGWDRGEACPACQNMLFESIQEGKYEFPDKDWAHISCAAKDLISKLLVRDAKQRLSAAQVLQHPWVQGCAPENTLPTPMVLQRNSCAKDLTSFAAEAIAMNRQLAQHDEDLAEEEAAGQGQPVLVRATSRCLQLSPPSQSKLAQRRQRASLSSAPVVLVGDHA
Method in brief: as §1

[9] = target: panel of human kinases (kinase named in endpoint) (Homo sapiens, UniProt Q14164); settings: 10 µM; read-out: Activity (%), IKKε(h)
Chain of panel of human kinases (kinase named in endpoint) (Homo sapiens, UniProt Q14164) (Q14164 whole entry): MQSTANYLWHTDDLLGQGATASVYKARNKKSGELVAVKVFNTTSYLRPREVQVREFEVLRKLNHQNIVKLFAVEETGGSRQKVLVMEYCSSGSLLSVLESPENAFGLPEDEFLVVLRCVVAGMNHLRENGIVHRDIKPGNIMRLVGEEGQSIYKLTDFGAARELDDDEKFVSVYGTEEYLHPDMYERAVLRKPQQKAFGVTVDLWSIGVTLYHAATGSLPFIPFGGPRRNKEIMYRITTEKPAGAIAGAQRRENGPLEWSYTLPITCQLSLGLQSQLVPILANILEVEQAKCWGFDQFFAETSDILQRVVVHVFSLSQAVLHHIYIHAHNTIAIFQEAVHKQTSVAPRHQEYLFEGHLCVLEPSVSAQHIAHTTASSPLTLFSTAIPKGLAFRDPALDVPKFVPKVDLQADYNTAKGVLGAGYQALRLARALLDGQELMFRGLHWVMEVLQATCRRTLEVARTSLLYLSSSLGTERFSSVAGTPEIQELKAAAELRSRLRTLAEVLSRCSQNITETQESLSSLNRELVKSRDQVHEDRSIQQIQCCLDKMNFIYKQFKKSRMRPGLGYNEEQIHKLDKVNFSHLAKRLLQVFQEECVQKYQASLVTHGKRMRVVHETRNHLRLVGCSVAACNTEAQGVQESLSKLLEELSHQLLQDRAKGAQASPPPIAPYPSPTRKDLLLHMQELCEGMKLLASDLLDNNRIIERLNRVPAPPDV
Method in brief: as §1

[10] = target: panel of human kinases (kinase named in endpoint) (Homo sapiens, UniProt Q9NYL2); settings: 10 µM; read-out: Activity (%), ZAK(h)
Method in brief: as §1

[11] = target: panel of human kinases (kinase named in endpoint) (Homo sapiens, UniProt Q15831); settings: 10 µM; read-out: Activity (%), LKB1(h)
Method in brief: as §1

[12] = target: panel of human kinases (kinase named in endpoint) (Homo sapiens, UniProt P05771); settings: 10 µM; read-out: Activity (%), PKCβI(h)
Method in brief: as §1

[13] = target: panel of human kinases (kinase named in endpoint) (Homo sapiens, UniProt P42685); settings: 10 µM; read-out: Activity (%), PTK5(h)
Method in brief: as §1

[14] = target: panel of human kinases (kinase named in endpoint) (Homo sapiens, UniProt Q04759); settings: 10 µM; read-out: Activity (%), PKCθ(h)
Method in brief: as §1

[15] = target: panel of human kinases (kinase named in endpoint) (Homo sapiens, UniProt Q6IQ55); settings: 10 µM; read-out: Activity (%), TTBK2(h)
Method in brief: as §1

[16] = target: panel of human kinases (kinase named in endpoint) (Homo sapiens, UniProt P09619); settings: 10 µM; read-out: Activity (%), PDGFRβ(h)
Chain of panel of human kinases (kinase named in endpoint) (Homo sapiens, UniProt P09619) (P09619 33-1106): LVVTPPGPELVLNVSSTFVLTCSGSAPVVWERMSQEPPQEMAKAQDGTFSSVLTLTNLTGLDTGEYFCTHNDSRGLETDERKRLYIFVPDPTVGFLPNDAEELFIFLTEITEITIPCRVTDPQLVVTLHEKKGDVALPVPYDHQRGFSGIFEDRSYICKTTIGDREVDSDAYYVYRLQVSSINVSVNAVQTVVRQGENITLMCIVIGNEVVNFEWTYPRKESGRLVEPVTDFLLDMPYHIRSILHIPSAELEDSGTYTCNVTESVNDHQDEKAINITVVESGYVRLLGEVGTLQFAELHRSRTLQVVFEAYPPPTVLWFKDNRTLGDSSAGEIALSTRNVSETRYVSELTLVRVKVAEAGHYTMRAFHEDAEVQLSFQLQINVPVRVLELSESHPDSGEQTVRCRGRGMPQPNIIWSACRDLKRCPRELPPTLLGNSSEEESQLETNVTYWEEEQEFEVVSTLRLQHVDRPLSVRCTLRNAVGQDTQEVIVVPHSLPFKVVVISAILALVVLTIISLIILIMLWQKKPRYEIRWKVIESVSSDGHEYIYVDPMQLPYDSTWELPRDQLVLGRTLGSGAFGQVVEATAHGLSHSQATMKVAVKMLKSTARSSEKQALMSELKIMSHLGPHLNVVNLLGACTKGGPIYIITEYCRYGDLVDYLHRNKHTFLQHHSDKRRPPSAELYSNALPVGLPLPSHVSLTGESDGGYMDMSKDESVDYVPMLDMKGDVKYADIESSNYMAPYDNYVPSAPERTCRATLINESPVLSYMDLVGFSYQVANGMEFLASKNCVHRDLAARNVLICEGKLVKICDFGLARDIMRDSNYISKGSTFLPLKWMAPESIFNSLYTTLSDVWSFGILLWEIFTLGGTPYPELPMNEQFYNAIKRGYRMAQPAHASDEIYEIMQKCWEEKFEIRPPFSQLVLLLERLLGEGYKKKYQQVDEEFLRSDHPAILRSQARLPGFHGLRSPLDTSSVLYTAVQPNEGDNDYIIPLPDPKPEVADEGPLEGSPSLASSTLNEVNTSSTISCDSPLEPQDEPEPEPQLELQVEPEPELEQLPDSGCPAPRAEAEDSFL
Method in brief: as §1

[17] = target: panel of human kinases (kinase named in endpoint) (Homo sapiens, UniProt O75914); settings: 10 µM; read-out: Activity (%), PAK3(h)
Chain of panel of human kinases (kinase named in endpoint) (Homo sapiens, UniProt O75914) (O75914 whole entry): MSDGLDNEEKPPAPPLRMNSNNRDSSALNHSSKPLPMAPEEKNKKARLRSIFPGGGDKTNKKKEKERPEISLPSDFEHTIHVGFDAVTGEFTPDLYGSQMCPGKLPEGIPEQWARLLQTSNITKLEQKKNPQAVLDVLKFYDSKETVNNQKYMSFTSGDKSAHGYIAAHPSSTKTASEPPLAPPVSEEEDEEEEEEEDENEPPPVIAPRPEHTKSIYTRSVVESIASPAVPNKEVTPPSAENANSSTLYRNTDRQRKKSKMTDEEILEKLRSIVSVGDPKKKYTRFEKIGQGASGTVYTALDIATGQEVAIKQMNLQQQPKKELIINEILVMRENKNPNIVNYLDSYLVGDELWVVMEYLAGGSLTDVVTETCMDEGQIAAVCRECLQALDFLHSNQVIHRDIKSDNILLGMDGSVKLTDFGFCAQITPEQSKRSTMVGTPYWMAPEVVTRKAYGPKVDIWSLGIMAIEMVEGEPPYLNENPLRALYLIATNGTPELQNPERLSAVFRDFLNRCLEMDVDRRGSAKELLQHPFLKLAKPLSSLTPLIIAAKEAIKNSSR
Method in brief: as §1

[18] = target: panel of human kinases (kinase named in endpoint) (Homo sapiens, UniProt Q9H2G2); settings: 10 µM; read-out: Activity (%), SLK(h)
Method in brief: as §1

[19] = target: panel of human kinases (kinase named in endpoint) (Homo sapiens, UniProt Q13131); settings: 10 µM; read-out: Activity (%), AMPKα1(h)
Chain of panel of human kinases (kinase named in endpoint) (Homo sapiens, UniProt Q13131) (Q13131 whole entry): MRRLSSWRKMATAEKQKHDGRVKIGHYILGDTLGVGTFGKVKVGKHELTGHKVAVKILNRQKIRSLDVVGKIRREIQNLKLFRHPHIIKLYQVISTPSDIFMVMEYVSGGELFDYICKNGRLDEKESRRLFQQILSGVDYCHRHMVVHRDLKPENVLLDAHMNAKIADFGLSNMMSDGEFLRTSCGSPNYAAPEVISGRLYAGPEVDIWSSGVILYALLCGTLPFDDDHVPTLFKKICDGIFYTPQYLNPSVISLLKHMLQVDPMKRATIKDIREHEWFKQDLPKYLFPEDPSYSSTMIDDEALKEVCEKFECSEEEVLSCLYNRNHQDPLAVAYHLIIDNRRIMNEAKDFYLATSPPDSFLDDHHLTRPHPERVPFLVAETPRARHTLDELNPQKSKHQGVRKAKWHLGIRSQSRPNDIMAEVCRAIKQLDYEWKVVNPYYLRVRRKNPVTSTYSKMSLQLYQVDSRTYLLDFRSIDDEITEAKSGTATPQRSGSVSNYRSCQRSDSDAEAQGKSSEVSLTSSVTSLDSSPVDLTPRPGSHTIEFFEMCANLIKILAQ
Method in brief: as §1

[20] = target: panel of human kinases (kinase named in endpoint) (Homo sapiens, UniProt P21709); settings: 10 µM; read-out: Activity (%), EphA1(h)
Method in brief: as §1

[21] = target: panel of human kinases (kinase named in endpoint) (Homo sapiens, UniProt P08581, M1250T); settings: 10 µM; read-out: Activity (%), Met(M1268T)(h)
Method in brief: as §1

[22] = target: panel of human kinases (kinase named in endpoint) (Homo sapiens, UniProt Q92630); settings: 10 µM; read-out: Activity (%), DYRK2(h)
Chain of panel of human kinases (kinase named in endpoint) (Homo sapiens, UniProt Q92630) (Q92630 whole entry): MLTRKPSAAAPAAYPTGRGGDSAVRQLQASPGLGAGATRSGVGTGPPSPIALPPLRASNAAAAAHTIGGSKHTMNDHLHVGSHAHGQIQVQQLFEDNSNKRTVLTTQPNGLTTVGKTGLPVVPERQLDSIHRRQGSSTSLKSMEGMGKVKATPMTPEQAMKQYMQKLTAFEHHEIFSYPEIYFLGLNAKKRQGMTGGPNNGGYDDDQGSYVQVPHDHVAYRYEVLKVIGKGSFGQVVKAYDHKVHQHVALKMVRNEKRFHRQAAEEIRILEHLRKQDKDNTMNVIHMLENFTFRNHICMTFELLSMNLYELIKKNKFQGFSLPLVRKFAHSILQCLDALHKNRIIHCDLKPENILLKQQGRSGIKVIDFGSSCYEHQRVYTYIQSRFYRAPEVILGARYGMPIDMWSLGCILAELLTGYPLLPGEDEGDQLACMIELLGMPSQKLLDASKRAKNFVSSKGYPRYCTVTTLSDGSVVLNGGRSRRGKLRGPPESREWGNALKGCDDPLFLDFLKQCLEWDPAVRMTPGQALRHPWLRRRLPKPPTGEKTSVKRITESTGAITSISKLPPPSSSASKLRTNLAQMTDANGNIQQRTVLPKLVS
Method in brief: as §1

[23] = target: panel of human kinases (kinase named in endpoint) (Homo sapiens, UniProt Q15759); settings: 10 µM; read-out: Activity (%), SAPK2b(h)
Method in brief: as §1

[24] = target: panel of human kinases (kinase named in endpoint) (Homo sapiens, UniProt P16234, V561D); settings: 10 µM; read-out: Activity (%), PDGFRα(V561D)(h)
Chain of panel of human kinases (kinase named in endpoint) (Homo sapiens, UniProt P16234, V561D) (P16234 24-1089 V561D): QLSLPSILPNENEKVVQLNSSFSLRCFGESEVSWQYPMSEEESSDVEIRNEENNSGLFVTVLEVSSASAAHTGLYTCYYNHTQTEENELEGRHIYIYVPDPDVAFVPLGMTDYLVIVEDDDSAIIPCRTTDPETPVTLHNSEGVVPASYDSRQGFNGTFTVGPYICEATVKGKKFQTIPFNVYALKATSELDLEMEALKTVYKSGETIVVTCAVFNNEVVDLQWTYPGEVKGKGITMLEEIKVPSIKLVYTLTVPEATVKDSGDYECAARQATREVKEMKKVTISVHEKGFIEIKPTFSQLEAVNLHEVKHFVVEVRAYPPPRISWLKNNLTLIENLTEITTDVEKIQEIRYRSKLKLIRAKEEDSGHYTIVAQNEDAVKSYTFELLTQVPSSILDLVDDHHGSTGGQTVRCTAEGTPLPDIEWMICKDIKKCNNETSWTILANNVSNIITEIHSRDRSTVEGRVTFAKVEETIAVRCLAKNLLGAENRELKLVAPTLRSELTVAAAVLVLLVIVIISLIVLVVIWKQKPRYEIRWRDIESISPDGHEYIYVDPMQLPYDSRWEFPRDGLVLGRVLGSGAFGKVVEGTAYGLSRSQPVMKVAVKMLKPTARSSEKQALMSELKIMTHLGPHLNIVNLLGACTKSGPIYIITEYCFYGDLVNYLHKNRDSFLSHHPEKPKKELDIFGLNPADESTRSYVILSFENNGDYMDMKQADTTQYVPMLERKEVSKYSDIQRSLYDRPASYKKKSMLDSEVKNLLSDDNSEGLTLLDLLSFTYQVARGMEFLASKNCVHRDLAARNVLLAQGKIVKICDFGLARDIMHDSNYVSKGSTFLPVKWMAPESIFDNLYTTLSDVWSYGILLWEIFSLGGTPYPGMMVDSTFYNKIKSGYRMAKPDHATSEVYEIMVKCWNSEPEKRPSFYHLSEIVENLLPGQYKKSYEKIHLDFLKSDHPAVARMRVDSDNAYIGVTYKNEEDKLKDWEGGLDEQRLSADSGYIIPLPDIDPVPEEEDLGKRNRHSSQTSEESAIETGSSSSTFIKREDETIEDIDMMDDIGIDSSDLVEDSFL
Method in brief: as §1

[25] = target: panel of human kinases (kinase named in endpoint) (Homo sapiens, UniProt Q8IWQ3); settings: 10 µM; read-out: Activity (%), BrSK2(h)
Method in brief: as §1

CC(C)C(=O)Nc1nc2cc(-c3ccc4c(c3)c(C(=O)NC(C)c3ccccc3)cn4C)ccn2n1 (stereo not shown) [RI-962]
activity at 10 µM [1]: 97%
activity at 10 µM [2]: 103%
activity at 10 µM [3]: 92%
activity at 10 µM [4]: 81%
activity at 10 µM [5]: 71%
activity at 10 µM [6]: 77%
activity at 10 µM [7]: 75%
activity at 10 µM [8]: 92%
activity at 10 µM [9]: 103%
activity at 10 µM [10]: 72%
activity at 10 µM [11]: 105%
activity at 10 µM [12]: 120%
activity at 10 µM [13]: 104%
activity at 10 µM [14]: 131%
activity at 10 µM [15]: 81%
activity at 10 µM [16]: 107%
activity at 10 µM [17]: 77%
activity at 10 µM [18]: 84%
activity at 10 µM [19]: 93%
activity at 10 µM [20]: 97%
activity at 10 µM [21]: 115%
activity at 10 µM [22]: 92%
activity at 10 µM [23]: 84%
activity at 10 µM [24]: 102%
activity at 10 µM [25]: 110%
